Measurements as given in patent publication US8088791B2, “Antibacterial agents” (Biots Scientific Management Pty Ltd, priority 2006, dated 2012).
In brackets after ≈: the same amount, converted by molar mass. Like-named read-outs stand apart in the source and are kept apart here.

Assays:
[1] = system: various bacterial species; experiment: Minimum Inhibitory Concentration (MIC) testing, broth microdilution, other bacterial species; type: cell-based
Experimental: Compounds of this invention were tested for antimicrobial activity by susceptibility testing in liquid media. MICs for compounds against each strain were determined by a broth microdilution method according to the National Committee for Clinical Laboratory Standards (NCCLS) guidelines. (NCCLS. 2000. Methods for dilution antimicrobial susceptibility tests for bacteria that grow aerobically—fifth edition. Approved standard M7-A5. NCCLS, Wayne, Pa.)
Briefly, test compounds are prepared in 100 μl of 1.6% DMSO solution in multiwell plates. Several bacterial colonies from a freshly streaked plate are transferred to an appropriate rich broth, such as Mueller Hinton. The cell suspension is adjusted to an optical density of 0.09 and further diluted 1:100 with warm 2× broth. This cell suspension is dispensed into the wells containing compound solution so that the final volume is 200 μl. The plates are incubated overnight (16-20 hours) at 37° C. and turbidity is scored by eye and quantified spectrophotometrically. The MIC is defined as the lowest concentration inhibiting visible growth.
Some of the Examples were also tested for activity against other bacterial species. […] Activities were again scored as ‘A’ if the MIC was ≦8 micrograms/ml, ‘B’ if the MIC was 16 to 64 micrograms/ml and ‘C’ if the MIC was greater than 64 micrograms/ml.

Bacillus subtilis 168CA = experiment: Minimum Inhibitory Concentration (MIC) testing, broth microdilution, Bacillus subtilis; type: cell-based; settings: Bacillus subtilis 168CA; read-out: Bacillus subtilis MICs Activity
In short: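 Broth microdilution followed NCCLS M7-A5, in rich broth such as Mueller Hinton, inoculum at OD 0.09 diluted 1:100, compounds in 1.6% DMSO before inoculum. After 16–20 h at 37 °C, MIC was the lowest concentration without visible growth. Score A: ≦8 μg/ml, B: 16–64 μg/ml, C: >64 μg/ml.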

[2] = system: Staphylococcus aureus ATCC29213; experiment: Minimum Inhibitory Concentration (MIC) testing, broth microdilution, Staphylococcus aureus; type: cell-based; settings: Staphylococcus aureus ATCC29213; read-out: Staphylococcus aureus MICs Activity
In short: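 Broth microdilution per NCCLS M7-A5 in Mueller Hinton broth, with compound in 1.6% DMSO and inoculum at OD 0.09 diluted 1:100. Plates incubated 16–20 h at 37°C. MIC is the lowest concentration with no visible growth; scored A ≤8, B 16–64, C >64 μg/ml.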

Staphylococcus aureus = experiment: mouse Staphylococcus aureus septicaemia model of infection; type: in vivo; settings: survival at day 7 of infected mice; single intraperitoneal dose of 100 mg/kg at 1 hour after intraperitoneal inoculation with a lethal dose of Staphylococcus aureus
Experimental: Some of the Examples were also tested for activity in a mouse Staphylococcus aureus septicaemia model of infection.

[3] = Bacillus cereus, ATCC14579, read-out: MIC Activity Bacillus cereus ATCC 14579
[4] = Staphylococcus saprophyticus, ATCC15305, read-out: MIC Activity Staphylococcus saprophyticus ATCC 15305
[5] = Staphylococcus epidermidis, ATCC12228, read-out: MIC Activity Staphylococcus epidermidis ATCC 12228
[6] = Staphylococcus haemolyticus, ATCC29970, read-out: MIC Activity Staphylococcus haemolyticus ATCC 29970

Compound | MIC [1, 3] | MIC [1, 4] | MIC (Bacillus subtilis 168CA) | melting point | MIC [2] | Percent survival (Staphylococcus aureus) | MIC [1, 5] | MIC [1, 6]
NC(=O)c1c(F)ccc(OCc2cc3cc(C(F)(F)F)ccc3s2)c1F [Example 208, 2,6-Difluoro-3-[5-(trifluoromethyl)-1-benzothiophen-2-yl]methoxybenzenecarboxamide] | < 8 µg/mL | < 8 µg/mL | < 8 µg/mL | 150 to 152 °C | < 8 µg/mL | – | – | –
Cc1ccc(-c2noc(COc3ccc(F)c(C(N)=O)c3F)n2)cc1 [Example 247, 2,6-Difluoro-3-[3-(4-methylphenyl)-1,2,4-oxadiazol-5-yl]methoxybenzenecarboxamide] | – | – | < 8 µg/mL | – | < 8 µg/mL | 100% | – | –
NC(=O)c1c(F)ccc(OCc2nc(-c3ccc(Cl)cc3)no2)c1F [Example 246, 3-[3-(4-Chlorophenyl)-1,2,4-oxadiazol-5-yl]methoxy-2,6-difluorobenzenecarboxamide] | < 8 µg/mL | < 8 µg/mL | < 8 µg/mL | – | < 8 µg/mL | 100% | < 8 µg/mL | < 8 µg/mL
NC(=O)c1c(F)ccc(OCc2nc(-c3ccc(O)cc3)no2)c1F [Example 242, 2,6-Difluoro-3-[3-(4-hydroxyphenyl)-1,2,4-oxadiazol-5-yl]methoxybenzenecarboxamide] | – | – | < 8 µg/mL | 209 to 210 °C | < 8 µg/mL | – | < 8 µg/mL | < 8 µg/mL
NC(=O)c1c(F)ccc(OCc2nc(-c3ccc(Cl)cc3)cs2)c1F [Example 106, 3-[4-(4-Chloro-phenyl)-thiazol-2-ylmethoxy]2,6-difluoro-benzamide] | < 8 µg/mL | < 8 µg/mL | < 8 µg/mL | – | < 8 µg/mL | 100% | < 8 µg/mL | < 8 µg/mL
C#CCCCCCCCCCCOc1cccc(C(N)=O)c1 [Example 66, 3-(11-Dodecynyloxy)benzenecarboxamide] | – | – | < 8 µg/mL | 106 to 108 °C | < 8 µg/mL | – | – | –
N#CCOc1ccc(F)c(C(N)=O)c1F [Example 225, 3-(Cyanomethoxy)-2,6-difluorobenzenecarboxamide] | – | – | > 64 µg/mL | 122 to 123 °C | > 64 µg/mL | – | – | –
C#CCCCCCCCCOc1cccc(C(N)=O)c1 [Example 67, 3-(9-Decynyloxy)benzenecarboxamide] | – | – | < 8 µg/mL | 111 to 112 °C | < 8 µg/mL | – | – | –
CCCCCCCCCOc1cc(C(N)=O)ccn1 [Example 94, 2-(Nonyloxy)isonicotinamide] | – | – | < 8 µg/mL | 108 to 110 °C | < 8 µg/mL | – | – | –
COc1ccc(-c2noc(COc3ccc(F)c(C(N)=O)c3F)n2)cc1 [Example 241, 2,6-Difluoro-3-[3-(4-methoxyphenyl)-1,2,4-oxadiazol-5-yl]methoxybenzenecarboxamide] | – | – | < 8 µg/mL | – | < 8 µg/mL | 100% | – | –
CCCCCCCCCOc1ccc(Cl)c(C(N)=O)c1F [Example 76, 6-Chloro-2-fluoro-3-(nonyloxy)benzenecarboxamide] | – | – | < 8 µg/mL | 75 to 77 °C | < 8 µg/mL | – | – | –
NC(=O)c1c(F)ccc(OCc2nc3ccc(OC(F)(F)F)cc3s2)c1F [Example 230, 2,6-Difluoro-3-[6-(trifluoromethoxy)-1,3-benzothiazol-2-yl]methoxybenzenecarboxamide] | – | – | < 8 µg/mL | 174 to 175 °C | < 8 µg/mL | – | – | –
Cc1cccc2sc(COc3ccc(F)c(C(N)=O)c3F)nc12 [Example 228, 2,6-Difluoro-3-[(4-methyl-1,3-benzothiazol-2-yl)methoxy]benzenecarboxamide] | – | – | < 8 µg/mL | 201 to 202 °C | 16 to 64 µg/mL (≈ 47.9 to 191 µM) | – | – | –
CCCCCCOc1c(F)cc(F)c(C(N)=O)c1F [Example 79, 2,4,6-Trifluoro-3-(hexyloxy)benzenecarboxamide] | – | – | 16 to 64 µg/mL (≈ 58.1 to 232 µM) | 89 to 90 °C | 16 to 64 µg/mL (≈ 58.1 to 232 µM) | – | – | –
N#CCCCCCCCCCOc1cccc(C(N)=O)c1 [Example 93, 3-[(9-Cyanononyl)oxy]benzenecarboxamide] | – | – | < 8 µg/mL | 96 to 97 °C | 16 to 64 µg/mL (≈ 55.5 to 222 µM) | – | – | –
CCCc1ccc2nc(COc3ccc(F)c(C(N)=O)c3F)sc2c1 [Example 231, 2,6-Difluoro-3-[(6-propyl-1,3-benzothiazol-2-yl)methoxy]benzenecarboxamide] | – | – | < 8 µg/mL | 244 to 246 °C | < 8 µg/mL | – | – | –
CCCCOC(=O)CCCOc1ccc(F)c(C(N)=O)c1F [Example 181, Butyl 4-[3-(aminocarbonyl)-2,4-difluorophenoxy]butanoate] | – | – | < 8 µg/mL | 53 to 55 °C | 16 to 64 µg/mL (≈ 50.7 to 203 µM) | – | – | –
NC(=O)c1cccc(OCc2cccc(O)c2)c1 [Example 173, 3-[(3-Hydroxybenzyl)oxy]benzenecarboxamide] | – | – | > 64 µg/mL | 122 to 123 °C | > 64 µg/mL | – | – | –
CCCCOC(=O)C=CCOc1ccc(F)c(C(N)=O)c1F [Example 180, Butyl 4-[3-(aminocarbonyl)-2,4-difluorophenoxy]-2-butenoate] | – | – | < 8 µg/mL | < 40 °C | 16 to 64 µg/mL (≈ 51.1 to 204 µM) | – | – | –
NC(=O)c1c(F)ccc(OCc2nc3cc(-c4ccncc4)ccc3s2)c1F [Example 232, 2,6-Difluoro-3-[5-(4-pyridinyl)-1,3-benzothiazol-2-yl]methoxybenzenecarboxamide] | – | – | 16 to 64 µg/mL (≈ 40.3 to 161 µM) | 255 to 258 °C | < 8 µg/mL | – | – | –
